In PMC4926073, “Absorption and Transport of Sea Cucumber Saponins from Apostichopus japonicus” (Marine Drugs, 2016):
Where two headings read alike, the source gives them in different places.

Assays:
in vitro = conditions: human; for recovery: Caco-2, Recovery (AP + BL chambers + cell monolayer)
Caco-2 cell monolayer [1] = conditions: human
[2] = Freeze-thaw, short-term and long-term stability in rat plasma; conditions: for Short-Term Stability, Accuracy (%): ambient temperature 24 h; for Long-Term Stability, Accuracy (%): ambient temperature 5 d
[3] = Single-pass intestinal perfusion in rats; conditions: for concentration-dependent changes in permeability: 1, 5, 25 μg/mL
Procedure: (§1) Data were expressed as the means ± SD of three determinations: Peff = −Q ln [Cout/Cin]/2πrl(2)
(§2) In which Cin is the inlet concentration and Cout is the outlet concentration of compound, which is corrected for volume change in the segment using phenol red concentration in the inlet and outlet tubing. Q is the flow rate (0.2 mL/min), r is the rat intestinal radius (0.18 cm), and l is the length of the segment [32].
(§3) The rats were anaesthetized with an intra-abdominal injection of 10% chloral hydrate at a dose of 5 mL/kg. The enterocoelia of the rat was dissected by a 3–4 cm midline length, a segment of intestine about 10 cm long was separated and washed with saline. Silicone tubing was inserted into both sides of the segment of intestine and a peristaltic pump was connected to the proximal side of the tube. A pledget with saline was added onto the surgical area to avoid loss of fluid. The segment was cleared with 37 °C saline firstly, then blank K-R buffer solution was infused at the inlet and blank perfusate was collected at the outlet. The segment was infused with perfusate containing phenol red and different concentrations of sea cucumber saponins (1, 5, and 25 μg/mL) at a flow rate of 2 mL/min. Then the rate was reduced to 0.2 mL/min for 30 min until steady-state. Samples were obtained from the outlet of the segment every 15 min and stored at −20 °C for analysis. Different concentrations of sea cucumber saponins were perfused to highlight the absorption mechanism of sea cucumber saponins, which were investigated by the concentration-dependent change of the permeability values. 400 μg/mL verapamil was added to the perfusion solution containing 5 μg/mL sea cucumber saponins and 20 μg/mL phenol red to investigate whether the intestinal absorption of sea cucumber saponins were affected by P-gp.

in vivo [4] = conditions: male, Wistar, rat, iv, 20 mg/kg
[5] = In vivo pharmacokinetics in rats after oral administration; conditions: 20 mg/kg
Caco-2 cell monolayer [6] = assay: Transepithelial transport across Caco-2 cell monolayer
[7] = Freeze-thaw, short-term and long-term stability in perfusate (Krebs-Ringer buffer solution); conditions: for Short-Term Stability, Accuracy (%): ambient temperature 24 h; for Long-Term Stability, Accuracy (%): ambient temperature 5 d
[8] = rat
[9] = rat, in vivo, 20 mg/kg
[10] = rat; remark: listed apart in the source
Procedure: as §1, §2, §3

in vivo [11] = conditions: rat
Procedure: as §1, §2, §3

[12] = nominal conc. 100.00 ng/mL, frozen at −20 °C 24 h, thawed at ambient temperature
[13] = range over freeze-thaw, short-term, long-term and both compounds

CO[C@@H]1[C@@H](O)[C@H](O[C@@H]2[C@@H](O)[C@H](O[C@H]3[C@H](O)[C@@H](O)[C@H](O[C@H]4[C@H](O[C@H]5CC[C@]6(C)C7=C[C@H](O)[C@]89C(=O)O[C@@](C)(CCCC(C)C)[C@@]8(O)CC[C@@]9(C)C7CCC6C5(C)C)OC[C@@H](OS(=O)(=O)O)[C@@H]4O)O[C@@H]3C)O[C@H](CO)[C@H]2O)O[C@H](CO)[C@H]1O (stereo partly shown) [Echinoside A]
Papp A→B (in vitro; Caco-2): 3.96 ± 0.55 ×10⁻⁶ cm/s
Papp B→A (in vitro; Caco-2): 5.38 ± 0.81 ×10⁻⁶ cm/s
recovery (in vitro; time 60 min): 97.4 ± 2.76%
recovery (in vitro; time 90 min): 98.2 ± 1.97%
recovery (in vitro; time 120 min): 96.6 ± 2.33%
recovery (in vitro; time 150 min): 96.5 ± 2.04%
Papp AP-BL (Caco-2 cell monolayer [1]): 4.04 ± 0.39 × 10^−6, cm·s^−1
Papp BL-AP (Caco-2 cell monolayer [1]): 5.33 ± 0.70 × 10^−6, cm·s^−1
Short-Term Stability, Accuracy (%) ([2]; nominal conc. 100.00 ng/mL): 95.4%
Long-Term Stability, Accuracy (%) ([2]; nominal conc. 100.00 ng/mL): 97.2%
Freeze-Thaw Stability, Accuracy (%) [2, 12]: 94.4%
Freeze-Thaw Stability, Accuracy (%) ([2]; nominal conc. 1000.00 ng/mL): 96.7%
Short-Term Stability, Accuracy (%) ([2]; nominal conc. 1000.00 ng/mL): 96.0%
Long-Term Stability, Accuracy (%) ([2]; nominal conc. 1000.00 ng/mL): 102.1%
Freeze-Thaw Stability, Accuracy (%) ([2]; nominal conc. 5000.00 ng/mL): 98.9%
Short-Term Stability, Accuracy (%) ([2]; nominal conc. 5000.00 ng/mL): 102.4%
Long-Term Stability, Accuracy (%) ([2]; nominal conc. 5000.00 ng/mL): 100.3%
stability in plasma under three conditions [2, 13]: 93.4%–102.4
concentration-dependent changes in permeability ([3]; rat single-pass intestinal perfusion): not found
change in permeability when verapamil was added to the perfusate ([3]; rat single-pass intestinal perfusion, verapamil 400 μg/mL): No significant increase
Papp ([3]; rat, other: single-pass intestinal perfusion): 25 ×10⁻⁶ cm/s
AUC (in vivo [4]): 16400 ± 450 ng·h/mL
Cmax (in vivo [4]): 4000 ± 440 ng/mL
Tmax (in vivo [4]): 4.8 min
half-life (in vivo [4]): 8.52 ± 0.32 h
bioavailability ([5]; male, Wistar, rat, in vivo): 59%
AUC ([5]; male, Wistar, rat, in vivo, po): 9270 ± 390 ng·h/mL
Cmax ([5]; male, Wistar, rat, in vivo, po): 910 ± 20 ng/mL
half-life ([5]; male, Wistar, rat, in vivo, po, T1/2, rat): 6.99 h
Tmax ([5]; male, Wistar, rat, in vivo, po, Tmax): ≤ 3 h
time at which detected in rat plasma after oral administration ([5]; oral): 1 h
T1/2 ([5]; rat, oral): 6.9 ± 0.32 h
max value of the concentration in the plasma ([5]; rat, oral): 910 ng/mL
AP Chamber (%) recovered (Caco-2 cell monolayer [6]; time 60 min): 82.14 ± 2.85%
BL Chamber (%) recovered (Caco-2 cell monolayer [6]; time 60 min): 1.04 ± 0.12%
Cell Fraction (%) recovered (Caco-2 cell monolayer [6]; time 60 min): 14.22 ± 1.14%
AP Chamber (%) recovered (Caco-2 cell monolayer [6]; time 90 min): 81.63 ± 2.04%
BL Chamber (%) recovered (Caco-2 cell monolayer [6]; time 90 min): 1.51 ± 0.11%
Cell Fraction (%) recovered (Caco-2 cell monolayer [6]; time 90 min): 15.05 ± 1.29%
AP Chamber (%) recovered (Caco-2 cell monolayer [6]; time 120 min): 80.25 ± 2.67%
BL Chamber (%) recovered (Caco-2 cell monolayer [6]; time 120 min): 1.90 ± 0.20%
Cell Fraction (%) recovered (Caco-2 cell monolayer [6]; time 120 min): 14.43 ± 1.24%
AP Chamber (%) recovered (Caco-2 cell monolayer [6]; time 150 min): 79.38 ± 2.21%
BL Chamber (%) recovered (Caco-2 cell monolayer [6]; time 150 min): 2.36 ± 0.21%
Cell Fraction (%) recovered (Caco-2 cell monolayer [6]; time 150 min): 14.78 ± 0.92%
transport mechanism across Caco-2 monolayer (Caco-2 cell monolayer [6]; with and without P-gp inhibitor verapamil 100 μM): transported by passive diffusion without the participation of P-gp
Short-Term Stability, Accuracy (%) ([7]; nominal conc. 100.00 ng/mL): 90.8%
Long-Term Stability, Accuracy (%) ([7]; nominal conc. 100.00 ng/mL): 89.2%
Freeze-Thaw Stability, Accuracy (%) [7, 12]: 91.6%
Freeze-Thaw Stability, Accuracy (%) ([7]; nominal conc. 1000.00 ng/mL): 91.9%
Short-Term Stability, Accuracy (%) ([7]; nominal conc. 1000.00 ng/mL): 91.3%
Long-Term Stability, Accuracy (%) ([7]; nominal conc. 1000.00 ng/mL): 92.6%
Freeze-Thaw Stability, Accuracy (%) ([7]; nominal conc. 5000.00 ng/mL): 93.5%
Short-Term Stability, Accuracy (%) ([7]; nominal conc. 5000.00 ng/mL): 94.4%
Long-Term Stability, Accuracy (%) ([7]; nominal conc. 5000.00 ng/mL): 91.1%
stability in perfusate under three conditions [7, 13]: 88.2%–94.8

C=C(C)CCCC1(C)OC(=O)C23CC=C4C(CCC5C4(C)CCC(OC4OCC(OC6OC(CO)C(O)C(OC7OC(CO)C(O)C(OC)C7O)C6O)C(O)C4OC4OC(C)C(OC6OCC(O)C(OC7OC(CO)C(O)C(OC)C7O)C6O)C(O)C4O)C5(C)C)C2(C)CC(=O)C13 (stereo not shown) [Holotoxin A1]
stability in plasma under three conditions [8]: 93.4%–102.4
Papp A→B (in vitro; Caco-2): < 0.83 ×10⁻⁶ cm/s
Papp B→A (in vitro; Caco-2): < 0.83 ×10⁻⁶ cm/s
Papp AP-BL (Caco-2 cell monolayer [1]): <0.83 × 10^−6, cm·s^−1
PappAB (Papp AP to BL) (Caco-2 cell monolayer [1]): less than 0.83 × 10^−6 cm·s^−1
detection in the plasma after oral administration [9]: not detected
change in permeability when verapamil was added to the perfusate [10]: No significant increase
concentration-dependent changes in permeability [3]: not found
Papp (in vivo [11]): 2.67 ×10⁻⁶ cm/s
AUC (in vivo [4]): 6530 ± 150 ng·h/mL
Cmax (in vivo [4]): 2870 ± 170 ng/mL
Tmax (in vivo [4]): 4.8 min
half-life (in vivo [4]): 4.4 ± 0.06 h
AP Chamber (%) recovered (Caco-2 cell monolayer [6]; time 60 min): 97.66 ± 2.02%
AP Chamber (%) recovered (Caco-2 cell monolayer [6]; time 90 min): 96.56 ± 1.89%
AP Chamber (%) recovered (Caco-2 cell monolayer [6]; time 120 min): 95.46 ± 1.72%
AP Chamber (%) recovered (Caco-2 cell monolayer [6]; time 150 min): 95.90 ± 2.27%
BL Chamber (%) recovered (Caco-2 cell monolayer [6]; time 150 min): <0.2%
Cell Fraction (%) recovered (Caco-2 cell monolayer [6]; time 150 min): <0.2%

CC(C)NCC(O)COc1cccc2ccccc12 (stereo not shown) [propranolol, reference compound]
Papp A→B at 150 min, 20 µM (in vitro; Caco-2): 26.1 ± 1.2 ×10⁻⁶ cm/s
